{"source": "patent US20220054540A1", "about": "“Ferric Carboxymaltose In The Treatment Of Heart Failure And In The Treatment Of Congestion In Heart Failure” (Vifor (International) AG, priority 2018, published 2022)", "key": {"[1]": {"test_system": "ambulatory patients with NYHA class II or III CHF and iron deficiency", "assay": "FAIR-HF plasma volume status (PVS) substudy: post-hoc analysis of calculated PVS and clinical congestion, IV FCM vs placebo", "assay_type": "in vivo, human (patients)", "details": "for change from baseline in Hct / change from baseline in PVS / change from baseline in weight: mean±SD; for change from baseline in Hct: significant increase compared to placebo", "procedure": "FAIR-HF is a multi-centre, randomized, double-blind trial including 459 ambulatory patients with NYHA class II or III CHF, a left ventricular ejection fraction (LVEF) ≤40% (NYHA II) or ≤45% (NYHA III), iron deficiency (ID) as defined by a ferritin <100 ug/l or 100 to 299 ug/l with a transferrin saturation (TSAT)<20%, and a hemoglobin (Hb) level between 9.5 and 13.5 g/dl. Patients were randomized in a 2:1 ratio to intravenous (IV) iron as ferric carboxymaltose (FCM; Ferinject®) or IV placebo (saline) weekly until iron repletion (correction phase), then 4 weekly until week 24 (maintenance phase). FCM was administered in doses of 200 mg (4 mL) weekly up to iron repletion (correction phase of variable duration depending on individual iron deficit). The calculated dose was rounded to the next 100 mg iron, i.e. the final dose may be 100 mg iron depending on the individual iron deficit. After the correction phase, FCM was administered monthly in doses of 200 mg until the 24th week (maintenance phase).\nIn the placebo group, during the correction phase, patients will receive the number of normal saline injections (4 mL weekly) corresponding to the calculated total iron dose needed according to the individual iron deficit. During the maintenance phase, placebo patients will receive 4 mL normal saline monthly. Regular assessments were done at weeks 4, 12, and 24.\nThe hematocrit value (Hct or Ht) and weight at randomization were used for plasma volume status (PVS) calculations and were available in 436 (95%) patients whose data were therefore used in this post-hoc analysis.\nActual plasma volume (PV) was calculated with the following equation that was derived by curve-fitting techniques using subjects' Hct and weight compared with PV values measured with gold standard radioisotope assays:\nactual PV=([1−Hct]×[a+(b×weight [kg])])\nwhere Hct is a fraction and a=1530 in males and 864 in females, and b=41 in males and 47.9 in females.\nIdeal PV was calculated from the following well established formula:\nwhere c=39 in males and 40 in females\nRelative PVS, an index of the degree to which patients have deviated from their ideal PV, was subsequently calculated from the following equation:\nPVS=([actual PV−ideal PV]/ideal PV)×100%\nPatients were weighed and examined for signs and symptoms of congestion at randomization and at weeks 4, 12 and 24. The presence or absence of peripheral edema, pulmonary congestion (crackles, rales), and an S3 gallop (third heart sound) were recorded, as was the actual jugular venous pressure (JVP).\nData are presented as mean±SD, frequencies (%), or medians (interquartile range [IQR]). Intergroup comparisons were made using a Kruskall-Wallis analysis of variance (ANOVA), analysis of covariance (ANCOVA), Student t-test, Pearson χ2 test, or a Mann Whitney U-test as appropriate. Associations between variables were determined using logistic regression. A P-value <0.10 was used to enter and retain covariates into stepwise multivariable regression models.\nTo assess the impact of treatment assignment on PVS, comparisons of changes in PVS from baseline at 4, 12, and 24 weeks between the placebo and FCM group were evaluated by comparing the least square means at each visit from a repeated-measures model using an unstructured covariance structure and adjusting for the continuous baseline value and a visit x drug interaction. Changes over time for other variables were similarly determined."}, "[2]": {"test_system": "ambulatory patients with NYHA class II or III CHF and iron deficiency", "details": "after 24 weeks of treatment, IV FCM compared to saline; cited from earlier work"}, "[3]": {"details": "cited from earlier work"}, "[4]": {"details": "cited from earlier work", "remark": "listed apart in the source"}, "[5]": {"details": "publications, e.g. Qunibi et al. 2011; cited from earlier work"}, "[6]": {"details": "week 4, significant reduction compared to placebo"}}, "data": [{"substance": "polynuclear iron(III)-oxyhydroxide carboxypolymaltose (carboxymaltodextrin) [FCM]", "values": [{"measurement": "peripheral edema", "setting": "[1]; FCM treatment compared to placebo (FIG. 2d)", "value": "improvement in peripheral edema"}, {"measurement": "improvement in pulmonary edema", "setting": "[1]; FCM treatment vs placebo, P=0.35", "value": "not evident"}, {"measurement": "improvement in jugular venous distension", "setting": "[1]; FCM treatment vs placebo, P=0.54", "value": "not evident"}, {"measurement": "improvement in presence of an S3 gallop rhythm", "setting": "[1]; FCM treatment vs placebo, P=1.00", "value": "not evident"}, {"measurement": "time of maximal treatment effect on PVS", "setting": "[1]; FCM vs placebo", "value": 12, "unit": "week"}, {"measurement": "change from baseline in Hct", "setting": "[1]; week 4", "value": "2 ± 4", "unit": "%"}, {"measurement": "change from baseline in PVS", "setting": "[1]; [6]", "value": "−2.5±5.9", "unit": "%"}, {"measurement": "change from baseline in weight", "setting": "[1]; [6]", "value": "-0.2 ± 2.4", "unit": "kg"}, {"measurement": "change from baseline in weight", "setting": "[1]; week 12, not significant compared to placebo", "value": "0.2 ± 3.0", "unit": "kg"}, {"measurement": "change from baseline in Hct", "setting": "[1]; week 12", "value": "3 ± 4", "unit": "%"}, {"measurement": "change from baseline in PVS", "setting": "[1]; week 12, significant reduction compared to placebo", "value": "−3.9±6.8", "unit": "%"}, {"measurement": "change from baseline in weight", "setting": "[1]; week 24, not significant compared to placebo", "value": "0.3 ± 3.2", "unit": "kg"}, {"measurement": "change from baseline in Hct", "setting": "[1]; week 24", "value": "3 ± 5", "unit": "%"}, {"measurement": "change from baseline in PVS", "setting": "[1]; week 24, significant reduction compared to placebo", "value": "−4.1±7.4", "unit": "%"}, {"measurement": "6 minute walking distance (6MWD)", "setting": "[2]", "value": "significant improvements"}, {"measurement": "NYHA class", "setting": "[2]", "value": "significant improvements"}, {"measurement": "Patient Global Assessment (PGA)", "setting": "[2]", "value": "significant improvements"}, {"measurement": "dextran cross-reactivity", "setting": "[3]; in vivo", "value": "no dextran cross-reactivity"}, {"measurement": "tolerability of rapid infusion", "setting": "[3]; up to 1000 mg of elemental iron over 15 min, intravenous", "value": "well tolerated"}, {"measurement": "stability of the iron-carbohydrate complex", "setting": "[4]; compared with ferric gluconate and iron sucrose", "value": "more stable than ferric gluconate or iron sucrose"}, {"measurement": "pH of the complex", "setting": "[4]; nearly neutral", "value": "5.0-7.0"}, {"measurement": "peripheral edema as adverse event", "setting": "[5]", "value": "one of the most commonly occurring adverse events"}]}]}
